Assay results from patent US20230338315A1, “METHOD OF PRODUCING PHARMACEUTICAL COCRYSTALS FOR ADDITIVE MANUFACTURING” (BOARD OF REGENTS, THE UNIVERSITY OF TEXAS SYSTEM, priority 2020, published 2023).

Experiments:
[1] = Preformulation studies: solubility in solvents; assay type: physicochemical; settings: for Soluble in solvent ET-Acetate: solvent ethyl acetate
Method: Both the drug and conformer were soluble in ethyl acetate. Ethyl acetate was used to prepare pure MA-SAC cocrystals using slow solvent evaporation. Briefly, 1:1 molar ratio of MA and SAC were mixed using a mortar and pestle. This blend was dissolved in ethyl acetate at 50° C. in a glass beaker using a magnetic stirrer-hotplate. Once the physical mixture was dissolved, the solvent was placed on an ice bath to induce nucleation of the cocrystals, the beaker was then placed in fume hood until all the solvent was evaporated. After the solvent was evaporated, the crystals were placed in an oven at 60° C. to remove any residual solvent. The resultant crystals were tested for modulated differential scanning calorimetry. A clear phase separation was observed where crystals with two different habits were developed. Samples for each phase were collected and exposed to thermal analysis.

[2] = HPLC with mass spectrophotometer of hot melt extruded mefenamic acid (degradant identification); assay type: physicochemical
[3] = Preformulation studies with Kollidon VA64 (decomposition of mefenamic acid); assay type: physicochemical; settings: presence of Kollidon VA64
[4] = cited from earlier work
[5] = cited from earlier work; remark: listed apart in the source

Cc1cccc(Nc2ccccc2C(=O)O)c1C [Mefenamic acid]
Soluble in solvent ACN [1]: No
Soluble in solvent Et—OH [1]: Yes
Soluble in solvent Me—OH [1]: No
Soluble in solvent ET-Acetate [1]: Yes
degradation or decarboxylation in the extruded samples ([2]; continuous, solvent-free, polymer assisted hot melt extrusion): no degradation or decarboxylation
degradation on hot melt extrusion processing (mass spectroscopy) ([2]; processed with saccharin by HME at 200° C., 180° C., 170° C. and 160° C., no polymer carrier): decarboxylation
effect of Kollidon VA64 on decomposition of mefenamic acid [3]: can delay the decomposition

O=C1NS(=O)(=O)c2ccccc21 [Saccharin]
Soluble in solvent ACN [1]: Yes
Soluble in solvent Et—OH [1]: No
Soluble in solvent Me—OH [1]: Yes
Soluble in solvent ET-Acetate [1]: Yes
Log P [4]: 0.91
pKa [5]: 1.31
